# Test results: PubChem BioAssay (NCI)
#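 The compound was tested at five concentrations on cells cultured in 96-well plates, with a 48-hour exposure period. TGI denotes the concentration required for complete inhibition of growth.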
# Key:
# Experiment in all cases: NCI tumour cell line growth inhibition, 48 h
# T-47D breast = system: T-47D breast
# SF-295 CNS = system: SF-295 CNS
# SK-MEL-2 melanoma = system: SK-MEL-2 melanoma
# RPMI-8226 leukemia = system: RPMI-8226 leukemia
# NCI/ADR-RES ovarian = system: NCI/ADR-RES ovarian
# SN12C renal = system: SN12C renal
# HCT-116 colon = system: HCT-116 colon
# NCI-H23 lung = system: NCI-H23 lung
# OVCAR-8 ovarian = system: OVCAR-8 ovarian
# 786-0 renal = system: 786-0 renal
SMILES,TGI (T-47D breast) [µM],TGI (SF-295 CNS) [µM],TGI (SK-MEL-2 melanoma) [µM],TGI (RPMI-8226 leukemia) [µM],TGI (NCI/ADR-RES ovarian) [µM],TGI (SN12C renal) [µM],TGI (HCT-116 colon) [µM],TGI (NCI-H23 lung) [µM],TGI (OVCAR-8 ovarian) [µM],TGI (786-0 renal) [µM]
COc1cc([C@@H]2c3cc4c(cc3[C@@H](c3c(O)cc(O)c5c3O[C@H](c3ccc(O)c(O)c3)[C@@H](O)C5)[C@H]3COC(=O)[C@H]23)OCO4)cc(OC)c1OC,5.16,3.45,3.75,59.4,> 100,> 100,> 100,> 100,> 100,> 100
Cc1ccc(OCC2OC(n3cnc4c(Cl)nc(N)nc43)CC2Oc2ccc(C)cc2)cc1 (stereo not given),> 100,> 100,> 56.9,> 100,> 75.5,> 100,> 100,49.7,> 100,> 100
NCCCN(CCCN(C(=O)Nc1ccccc1)c1ccccc1)C(=O)Nc1ccccc1,79.3,58.3,55.6,73,> 100,> 100,> 100,> 100,> 100,> 100
COc1cccc(CCN2CCN(CCCc3ccccc3)CC2)c1,> 100,> 100,> 100,> 100,> 100,> 100,> 100,> 100,> 100,> 100
CN(C)c1ccc(/C(F)=C(F)/C(F)=C(F)/C(F)=C(\F)c2ccc(Br)cc2)cc1,> 100,> 52.1,> 100,> 100,22.4,> 25.5,> 25.5,63.4,> 96,22.2
Cc1cc(-c2nc3cc(F)ccc3s2)ccc1NC(=O)[C@@H](N)CCCCN,17.3,9.62,8.76,4.88,37.2,26,7.67,4.93,11.2,7.29
OCC(O)C(O)C(O)C(O)c1nc2ccc(Cl)cc2[nH]1 (stereo not given),> 100,> 100,> 100,> 100,> 100,> 100,> 100,> 100,> 100,> 100
CC(C)CNc1nc2ncnc(N)c2[nH]1,> 100,> 100,> 100,> 100,> 100,> 100,> 100,> 100,> 100,> 100
COc1ccc2c3c1OC1C(=O)C=CC4(CC2)N(C)CCC314 (stereo not given),> 100,> 100,54.3,45.6,> 100,> 100,29.1,> 100,> 100,63.7
Cc1ccc2c(=O)cc(-c3ccc(Cl)s3)[nH]c2n1,> 100,4.85,> 100,4.08,> 100,> 52.9,> 55.3,> 22.9,> 53.8,> 80.4
CCCCOC(=O)C(NC(C(=O)OCCCC)c1cc(C(C)(C)C)c(O)c(C(C)(C)C)c1)c1cc(C(C)(C)C)c(O)c(C(C)(C)C)c1 (stereo not given),> 100,> 100,> 100,> 100,> 100,> 100,> 100,> 100,> 100,> 100
ClCCCc1ccccc1C1=NCCc2ccccc21,> 100,> 100,> 100,23.3,> 100,> 100,> 100,> 100,> 100,> 100
CC(=O)NCCC1CN(C(=O)/C=C/I)c2ccccc21 (stereo not given),4.46,28.9,14.8,> 60.5,33.3,13.3,14.3,25.6,25.4,3.11
CCOP(=O)(/C=C\n1cc(C)c(=O)[nH]c1=O)OCC,> 100,> 100,> 100,> 100,> 100,> 100,> 100,> 100,> 100,> 100
COC(=O)C1(Cc2ccc3c(c2)CCC3)Cc2ccccc2C1O (stereo not given),> 100,35.2,27.4,80.4,60.1,29.2,31.8,45,36,32.4
C[N+](C)(C)c1ccc(C(N)C(=O)O)cc1 (stereo not given),> 100,> 100,> 100,> 100,> 100,> 100,> 100,> 100,> 100,> 100

SMILES,TGI (T-47D breast) [µM],TGI (SF-295 CNS) [µM],TGI (SK-MEL-2 melanoma) [µM],TGI (RPMI-8226 leukemia) [µM],TGI (NCI/ADR-RES ovarian) [µM],TGI (SN12C renal) [µM],TGI (HCT-116 colon) [µM],TGI (NCI-H23 lung) [µM],TGI (OVCAR-8 ovarian) [µM],TGI (786-0 renal) [µM]
Cc1ccc([S@](=O)c2occc2C=O)cc1,7.11,32.4,29.2,8.04,> 61,27.7,9.64,30.4,25.4,11.3
OCCO/N=C1\C(c2c(O)[nH]c3ccccc23)=Nc2ccccc21,> 100,> 100,> 100,> 100,> 100,> 100,> 100,> 100,> 100,> 100
Cc1ccc(S(=O)(=O)n2c3ccc(Br)cc3c3nc4ccccc4nc32)cc1,> 100,> 100,> 100,> 100,> 100,> 100,> 100,> 100,> 100,> 100
C[C@H](NC(=O)C(Cc1ccccc1)(Cc1ccc(O)cn1)NC(=O)c1ccccc1)c1ccccc1 (stereo not given in full),69.1,29,27.6,> 100,44.6,31.5,28.7,50.5,42.1,31.3
O=C1CCCCCCCCCCC1CN1CCCC1 (stereo not given),> 100,86.3,99.7,> 100,> 100,> 100,> 100,> 100,> 100,44.7
Cc1ccc(/C(O)=C/c2nc3ccccc3sc2=O)c(C)c1,> 100,> 100,> 100,77.6,> 100,> 100,> 100,> 100,> 100,> 100
O=S(Nc1ccccc1)c1ccc(N2CCOCC2)cc1 (stereo not given),58.9,> 100,> 100,> 100,> 100,> 100,> 100,> 100,> 100,> 100
COc1ccc(C2=Nc3cc(C)c(C)cc3NC(c3ccccc3)C2)cc1 (stereo not given),> 100,> 100,> 100,> 100,> 100,> 100,> 100,> 100,> 100,> 100
CC1CCC/C1=C(/I)C(=O)c1ccccc1 (stereo not given),> 100,> 100,> 100,> 100,> 100,> 100,> 100,> 100,> 100,> 100
CCN(CC)N1C(=O)[N+](CC)(CC)N=C1[O-],> 100,> 100,> 100,> 100,> 100,> 100,> 100,> 100,> 100,> 100
O=c1[nH]nc(-c2ccccc2)n1/N=C\c1ccccc1,> 100,> 100,> 100,> 100,> 100,> 100,> 100,> 100,> 100,> 100
CC(C)=NN/C(=N\S(=O)(=O)c1ccc(Oc2cccc(Cl)c2C#N)cc1)Nc1ccc(Cl)cc1,> 100,> 100,> 100,> 100,> 100,> 100,> 100,> 100,> 100,> 100
OC1(c2ccccc2)CCN(Cc2c[nH]c3ccccc23)CC1,> 100,> 100,36.1,> 100,> 100,> 100,> 100,> 100,> 100,> 100
CCNC(=S)N=Nc1c(O)[nH]c2ccc([N+](=O)[O-])cc12,> 100,> 100,> 100,> 100,> 100,> 100,> 100,> 100,> 100,69
CN(C)c1nc(N)nc(CS)n1,> 100,> 100,> 100,> 100,> 100,> 100,> 100,> 100,> 100,> 100
